# Measurements as given in publication PMC4685510, “A Cell Biologist’s Field Guide to Aurora Kinase Inhibitors” (Frontiers in Oncology, 2015).
# Columns and labels:
# Experiment in all cases: biochemical
# Type in all cases: biochemical
# [1] = biological target: T1, 363 human kinases (including Aurora A/B/C) (Homo sapiens, UniProt O95835); details: LATS1; for remaining activity at 0.1 µM: 100 nM; for remaining activity at 0.1 µM / remaining activity at 0.5 µM: read-out: % Enzyme Activity (relative to DMSO controls)
# T1 sequence (O95835 1-1130): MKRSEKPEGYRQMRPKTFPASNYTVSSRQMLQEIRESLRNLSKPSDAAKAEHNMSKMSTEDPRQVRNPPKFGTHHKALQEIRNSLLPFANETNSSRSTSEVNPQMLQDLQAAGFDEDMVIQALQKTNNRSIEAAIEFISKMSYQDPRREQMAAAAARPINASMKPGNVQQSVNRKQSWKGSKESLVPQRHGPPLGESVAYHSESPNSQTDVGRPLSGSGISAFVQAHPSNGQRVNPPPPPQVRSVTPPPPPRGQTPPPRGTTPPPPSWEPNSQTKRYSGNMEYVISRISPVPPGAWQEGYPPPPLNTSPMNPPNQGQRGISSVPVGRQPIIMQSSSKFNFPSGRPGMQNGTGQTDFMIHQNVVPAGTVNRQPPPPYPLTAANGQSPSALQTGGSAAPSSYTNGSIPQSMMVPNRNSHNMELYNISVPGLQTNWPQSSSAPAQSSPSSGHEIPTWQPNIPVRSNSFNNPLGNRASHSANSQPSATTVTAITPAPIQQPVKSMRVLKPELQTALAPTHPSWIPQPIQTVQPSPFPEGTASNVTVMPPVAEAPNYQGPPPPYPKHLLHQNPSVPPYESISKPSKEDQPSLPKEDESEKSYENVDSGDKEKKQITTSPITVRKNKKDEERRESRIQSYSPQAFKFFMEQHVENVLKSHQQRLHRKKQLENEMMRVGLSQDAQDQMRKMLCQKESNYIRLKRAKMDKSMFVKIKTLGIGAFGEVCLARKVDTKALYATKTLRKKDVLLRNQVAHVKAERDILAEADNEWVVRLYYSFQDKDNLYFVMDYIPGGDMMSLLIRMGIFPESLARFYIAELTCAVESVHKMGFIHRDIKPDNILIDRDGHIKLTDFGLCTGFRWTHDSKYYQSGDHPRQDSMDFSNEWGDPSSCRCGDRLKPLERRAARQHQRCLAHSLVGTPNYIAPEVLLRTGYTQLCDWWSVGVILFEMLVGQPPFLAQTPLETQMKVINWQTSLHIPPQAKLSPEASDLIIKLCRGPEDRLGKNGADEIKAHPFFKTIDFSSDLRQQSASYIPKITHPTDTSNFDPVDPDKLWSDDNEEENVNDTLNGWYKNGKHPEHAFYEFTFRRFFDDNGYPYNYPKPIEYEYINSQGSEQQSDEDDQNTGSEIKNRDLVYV
# Excerpt: (§1) However, the Aurora A/B selectivity ratios derived from our in vitro and in vivo data can be compared to prioritize inhibitors.
# [2] = biological target: T2, 363 human kinases (including Aurora A/B/C) (Homo sapiens, UniProt P25098); details: GRK2; for remaining activity at 0.1 µM: 100 nM; for remaining activity at 0.1 µM / remaining activity at 0.5 µM: read-out: % Enzyme Activity (relative to DMSO controls)
# T2 sequence (P25098 1-689): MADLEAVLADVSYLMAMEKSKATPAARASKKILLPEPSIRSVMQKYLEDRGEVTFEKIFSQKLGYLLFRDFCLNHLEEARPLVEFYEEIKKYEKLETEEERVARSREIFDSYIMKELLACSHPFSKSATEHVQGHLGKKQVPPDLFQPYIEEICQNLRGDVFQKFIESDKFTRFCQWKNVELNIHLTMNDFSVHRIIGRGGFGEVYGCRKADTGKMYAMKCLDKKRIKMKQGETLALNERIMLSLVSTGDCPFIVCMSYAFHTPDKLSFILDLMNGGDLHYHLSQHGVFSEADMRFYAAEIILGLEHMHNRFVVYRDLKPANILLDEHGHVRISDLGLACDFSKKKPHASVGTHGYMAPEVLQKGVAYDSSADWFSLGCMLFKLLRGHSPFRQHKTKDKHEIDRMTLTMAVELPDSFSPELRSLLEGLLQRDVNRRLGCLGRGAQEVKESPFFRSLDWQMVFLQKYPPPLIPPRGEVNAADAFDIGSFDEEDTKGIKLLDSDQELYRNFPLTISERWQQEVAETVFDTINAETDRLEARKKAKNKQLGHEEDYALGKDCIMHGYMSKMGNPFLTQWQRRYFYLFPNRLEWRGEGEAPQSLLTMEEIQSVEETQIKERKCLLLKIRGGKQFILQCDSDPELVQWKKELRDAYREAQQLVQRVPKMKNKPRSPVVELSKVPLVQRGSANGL
# Excerpt: as §1
# [3] = biological target: T3, 363 human kinases (including Aurora A/B/C) (Homo sapiens, UniProt Q06418); details: TYRO3/SKY; for remaining activity at 0.1 µM: 100 nM; for remaining activity at 0.1 µM / remaining activity at 0.5 µM: read-out: % Enzyme Activity (relative to DMSO controls)
# T3 sequence (Q06418 41-890): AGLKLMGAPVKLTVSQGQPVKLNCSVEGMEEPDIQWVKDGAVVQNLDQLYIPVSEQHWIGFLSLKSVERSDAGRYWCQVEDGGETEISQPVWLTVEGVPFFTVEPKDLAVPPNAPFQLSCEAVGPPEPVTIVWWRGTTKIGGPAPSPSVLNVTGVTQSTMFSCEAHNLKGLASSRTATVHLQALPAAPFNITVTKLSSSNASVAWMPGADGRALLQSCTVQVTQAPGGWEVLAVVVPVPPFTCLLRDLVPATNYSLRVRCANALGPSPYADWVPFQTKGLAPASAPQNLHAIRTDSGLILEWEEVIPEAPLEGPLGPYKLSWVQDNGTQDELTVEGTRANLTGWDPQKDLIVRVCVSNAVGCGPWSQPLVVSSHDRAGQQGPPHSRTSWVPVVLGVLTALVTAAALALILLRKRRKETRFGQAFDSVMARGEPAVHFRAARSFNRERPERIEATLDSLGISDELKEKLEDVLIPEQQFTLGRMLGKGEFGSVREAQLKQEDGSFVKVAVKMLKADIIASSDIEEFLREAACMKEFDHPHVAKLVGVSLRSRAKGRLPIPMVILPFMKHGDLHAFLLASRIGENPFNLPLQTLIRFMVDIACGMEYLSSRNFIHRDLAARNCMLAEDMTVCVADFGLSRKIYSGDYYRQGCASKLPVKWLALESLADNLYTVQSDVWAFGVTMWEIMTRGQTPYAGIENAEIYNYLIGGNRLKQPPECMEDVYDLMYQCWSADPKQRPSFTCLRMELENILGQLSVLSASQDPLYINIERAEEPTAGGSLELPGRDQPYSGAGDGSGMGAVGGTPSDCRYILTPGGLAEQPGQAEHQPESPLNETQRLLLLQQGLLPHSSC
# Excerpt: as §1
# [4] = biological target: 363 human kinases (including Aurora A/B/C) (Homo sapiens, UniProt Q9BYT3); details: STK33; for remaining activity at 0.1 µM: 100 nM; for remaining activity at 0.1 µM / remaining activity at 0.5 µM: read-out: % Enzyme Activity (relative to DMSO controls)
# Chain of 363 human kinases (including Aurora A/B/C) (Homo sapiens, UniProt Q9BYT3) (Q9BYT3 whole entry): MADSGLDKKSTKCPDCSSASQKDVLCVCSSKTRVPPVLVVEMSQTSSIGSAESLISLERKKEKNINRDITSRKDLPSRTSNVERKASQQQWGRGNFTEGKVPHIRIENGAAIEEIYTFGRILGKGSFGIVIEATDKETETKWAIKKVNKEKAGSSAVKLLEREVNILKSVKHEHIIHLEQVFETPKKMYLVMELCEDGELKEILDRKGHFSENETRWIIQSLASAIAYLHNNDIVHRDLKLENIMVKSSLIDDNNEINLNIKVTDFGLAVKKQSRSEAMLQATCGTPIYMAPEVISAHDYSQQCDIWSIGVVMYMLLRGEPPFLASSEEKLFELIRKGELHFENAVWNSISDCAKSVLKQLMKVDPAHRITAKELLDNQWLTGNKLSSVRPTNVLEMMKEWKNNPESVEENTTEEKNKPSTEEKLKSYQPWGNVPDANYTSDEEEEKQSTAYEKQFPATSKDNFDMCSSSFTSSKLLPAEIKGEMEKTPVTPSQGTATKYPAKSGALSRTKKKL
# Excerpt: as §1
# [5] = biological target: 363 human kinases (including Aurora A/B/C) (Homo sapiens, UniProt Q9HBH9); details: MNK2; for remaining activity at 0.1 µM: 100 nM; for remaining activity at 0.1 µM / remaining activity at 0.5 µM: read-out: % Enzyme Activity (relative to DMSO controls)
# Chain of 363 human kinases (including Aurora A/B/C) (Homo sapiens, UniProt Q9HBH9) (Q9HBH9 whole entry): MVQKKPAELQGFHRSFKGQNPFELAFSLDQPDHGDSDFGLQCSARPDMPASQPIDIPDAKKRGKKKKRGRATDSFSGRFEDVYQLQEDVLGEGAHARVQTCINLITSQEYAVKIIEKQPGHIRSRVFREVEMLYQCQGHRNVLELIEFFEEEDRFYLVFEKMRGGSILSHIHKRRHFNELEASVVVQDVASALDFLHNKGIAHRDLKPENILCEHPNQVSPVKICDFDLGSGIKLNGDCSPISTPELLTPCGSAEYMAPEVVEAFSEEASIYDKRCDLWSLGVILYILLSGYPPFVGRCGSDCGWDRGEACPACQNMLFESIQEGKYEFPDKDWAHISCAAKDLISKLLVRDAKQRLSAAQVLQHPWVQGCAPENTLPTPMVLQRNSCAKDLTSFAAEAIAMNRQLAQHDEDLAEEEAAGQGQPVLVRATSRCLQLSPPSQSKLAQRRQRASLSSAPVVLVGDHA
# Excerpt: as §1
smiles,measurement,setting,value
CCn1cc(-c2ccnc3[nH]c(-c4cccc(CN(C)C)c4)cc23)c(-c2ccc(NC(=O)N(C)C)cc2)n1 [GSK1070916],remaining activity at 0.1 µM,[1],97.5%
same,remaining activity at 0.1 µM,[2],101%
same,remaining activity at 0.1 µM,[3],83.8%
same,remaining activity at 0.1 µM,[4],111%
same,remaining activity at 0.1 µM,[5],96.9%
O=C(c1cccc(Cl)c1F)N1CCN(Cc2cccc(Nc3nccs3)n2)CC1 [MK-8745],% Enzyme Activity (relative to DMSO controls),[1]; 500 nM,96.46%
same,remaining activity at 0.5 µM,[1]; 500 nM,96.8%
same,% Enzyme Activity (relative to DMSO controls),[2]; 500 nM,103.92%
same,remaining activity at 0.5 µM,[2]; 500 nM,105%
same,% Enzyme Activity (relative to DMSO controls),[3]; 500 nM,27.58%
same,remaining activity at 0.5 µM,[3]; 500 nM,29.3%
same,% Enzyme Activity (relative to DMSO controls),[4]; 500 nM,107.39%
same,remaining activity at 0.5 µM,[4]; 500 nM,110%
same,% Enzyme Activity (relative to DMSO controls),[5]; 500 nM,97.70%
same,remaining activity at 0.5 µM,[5]; 500 nM,97.9%
O=C(O)[C@]1(Cc2cccc(Nc3nccs3)n2)CC[C@@H](Oc2cccc(Cl)c2F)CC1 [MK-5108],remaining activity at 0.1 µM,[1],98.5%
same,remaining activity at 0.5 µM,[1]; 500 nM,94.1%
same,remaining activity at 0.1 µM,[2],102%
same,remaining activity at 0.5 µM,[2]; 500 nM,106%
same,remaining activity at 0.1 µM,[3],75.9%
same,remaining activity at 0.5 µM,[3]; 500 nM,40.6%
same,remaining activity at 0.1 µM,[4],79.3%
same,remaining activity at 0.5 µM,[4]; 500 nM,70.5%
same,remaining activity at 0.1 µM,[5],105%
same,remaining activity at 0.5 µM,[5]; 500 nM,95%
